Measurements reported in patent US20260248134A1, “A METHOD FOR CONTROLLING WEEDS” (UPL MAURITIUS LIMITED, priority 2023, published 2026).

Columns and labels:
Assay type in all cases: in vivo
Digitaria nuda = assay: Control of weeds at post-emergence stage (Example 10)
Source text: (§1) The effect of application of asulam was observed on the growth of weeds at post-emergence stage for different application rates. The percentage (%) control of weeds has been evaluated and disclosed in Table 10.

Brachiaria plantaginea = assay: as above
Source text: as §1

Cynodon dactylon = assay: as above
Source text: as §1

Bidens pilosa = assay: as above
Source text: as §1

Raphanus raphanistrum [1] = assay: Control of Raphanus raphanistrum weed at different application rates (Example 7)
Source text: The effect of application of asulam was observed on the growth of Raphanus raphanistrum weed at 14, 21 and 28 DAA (days after application) at different application rates. The percentage (%) control of weeds has been evaluated and disclosed in Table 7.

Megathyrsus maximus = assay: Control of Megathyrsus maximus weed at different application rates (Example 5)
Source text: The effect of application of asulam was observed on the growth of Megathyrsus maximus weed at 14 and 21 DAA (days after application) at different application rates. The percentage (%) control of weeds has been evaluated and disclosed in Table 5.

Avena strigose = assay: Control of Avena strigose weed by asulam alone, with adjuvant, with additional herbicide (Example 3); settings: 4500 g a.i/ha
Procedure: (§2) The effect of application of asulam alone, asulam along with an adjuvant, and asulam along with an additional herbicide was observed on the growth of Avena strigose weed at 42, 49, 56 and 63 DAA (days after application). The percentage (%) control of weeds was evaluated to assess the efficacy of the compositions and the same has been disclosed in Table 3. Untreated control was also compared, wherein no herbicidal composition was applied and thus, no control of weeds was observed.

Ipomoea hederifolia [2] = assay: Control of Ipomoea hederifolia weed by asulam alone, with adjuvant, with additional herbicide (Example 1); settings: 4500 g a.i/ha
Procedure: as §2, with “Ipomoea hederifolia” for “Avena strigose”, “1.” for “3.”

Raphanus raphanistrum [3] = assay: Control of Raphanus raphanistrum weed by asulam alone, with adjuvant, with additional herbicide (Example 2); settings: 4500 g a.i/ha
Procedure: as §2, with “Raphanus raphanistrum” for “Avena strigose”, “2.” for “3.”

Ipomoea hederifolia [4] = assay: Control of Ipomoea hederifolia weed at different application rates (Example 6); settings: 1800 g a.i/ha; 21 DAA
Source text: The effect of application of asulam was observed on the growth of Ipomoea hederifolia weed at 21, 28 and 35 DAA (days after application) at different application rates. The percentage (%) control of weeds has been evaluated and disclosed in Table 6.

Compound: COC(=O)NS(=O)(=O)c1ccc(N)cc1 [Asulam, asulam]
- percentage (%) control of weeds (Digitaria nuda; 2800 g a.i/ha, 28 DAA): 99%
- percentage (%) control of weeds (Digitaria nuda; 2800 g a.i/ha, 35 DAA): 99%
- percentage (%) control of weeds (Digitaria nuda; 2800 g a.i/ha, 49 DAA): 99%
- percentage (%) control of weeds (Digitaria nuda; 3200 g a.i/ha, 28 DAA): 96%
- percentage (%) control of weeds (Digitaria nuda; 3200 g a.i/ha, 35 DAA): 100%
- percentage (%) control of weeds (Digitaria nuda; 3200 g a.i/ha, 49 DAA): 100%
- percentage (%) control of weeds (Digitaria nuda; 4000 g a.i/ha, 28 DAA): 93%
- percentage (%) control of weeds (Digitaria nuda; 4000 g a.i/ha, 35 DAA): 94%
- percentage (%) control of weeds (Digitaria nuda; 4000 g a.i/ha, 49 DAA): 94%
- percentage (%) control of weeds (Brachiaria plantaginea; 1800 g a.i/ha, 28 DAA): 92%
- percentage (%) control of weeds (Brachiaria plantaginea; 1800 g a.i/ha, 35 DAA): 92%
- percentage (%) control of weeds (Brachiaria plantaginea; 1800 g a.i/ha, 49 DAA): 83%
- percentage (%) control of weeds (Brachiaria plantaginea; 2250 g a.i/ha, 28 DAA): 95%
- percentage (%) control of weeds (Brachiaria plantaginea; 2250 g a.i/ha, 35 DAA): 88%
- percentage (%) control of weeds (Brachiaria plantaginea; 2250 g a.i/ha, 49 DAA): 73%
- percentage (%) control of weeds (Brachiaria plantaginea; 2500 g a.i/ha, 28 DAA): 93%
- percentage (%) control of weeds (Brachiaria plantaginea; 2500 g a.i/ha, 35 DAA): 92%
- percentage (%) control of weeds (Brachiaria plantaginea; 2500 g a.i/ha, 49 DAA): 100%
- percentage (%) control of weeds (Cynodon dactylon; 2400 g a.i/ha, 28 DAA): 94%
- percentage (%) control of weeds (Cynodon dactylon; 2400 g a.i/ha, 35 DAA): 97%
- percentage (%) control of weeds (Cynodon dactylon; 2400 g a.i/ha, 49 DAA): 99%
- percentage (%) control of weeds (Cynodon dactylon; 2800 g a.i/ha, 28 DAA): 96%
- percentage (%) control of weeds (Cynodon dactylon; 2800 g a.i/ha, 35 DAA): 97%
- percentage (%) control of weeds (Cynodon dactylon; 2800 g a.i/ha, 49 DAA): 100%
- percentage (%) control of weeds (Cynodon dactylon; 3200 g a.i/ha, 28 DAA): 94%
- percentage (%) control of weeds (Cynodon dactylon; 3200 g a.i/ha, 35 DAA): 94%
- percentage (%) control of weeds (Cynodon dactylon; 3200 g a.i/ha, 49 DAA): 96%
- percentage (%) control of weeds (Cynodon dactylon; 4000 g a.i/ha, 28 DAA): 95%
- percentage (%) control of weeds (Cynodon dactylon; 4000 g a.i/ha, 35 DAA): 96%
- percentage (%) control of weeds (Cynodon dactylon; 4000 g a.i/ha, 49 DAA): 100%
- percentage (%) control of weeds (Bidens pilosa; 1000 g a.i/ha, 28 DAA): 100%
- percentage (%) control of weeds (Bidens pilosa; 1000 g a.i/ha, 35 DAA): 100%
- percentage (%) control of weeds (Bidens pilosa; 1000 g a.i/ha, 49 DAA): 100%
- percentage (%) control of weeds (Bidens pilosa; 1500 g a.i/ha, 28 DAA): 100%
- percentage (%) control of weeds (Bidens pilosa; 1500 g a.i/ha, 35 DAA): 100%
- percentage (%) control of weeds (Bidens pilosa; 1500 g a.i/ha, 49 DAA): 100%
- percentage (%) control of weeds (Bidens pilosa; 1800 g a.i/ha, 28 DAA): 94%
- percentage (%) control of weeds (Bidens pilosa; 1800 g a.i/ha, 35 DAA): 97%
- percentage (%) control of weeds (Bidens pilosa; 1800 g a.i/ha, 49 DAA): 97%
- percentage (%) control of weeds (Bidens pilosa; 2250 g a.i/ha, 28 DAA): 93%
- percentage (%) control of weeds (Bidens pilosa; 2250 g a.i/ha, 35 DAA): 95%
- percentage (%) control of weeds (Bidens pilosa; 2250 g a.i/ha, 49 DAA): 94%
- Control of Raphanus raphanistrum (Raphanus raphanistrum [1]; 1800 g a.i/ha, 14 DAA): 61%
- Control of Raphanus raphanistrum (Raphanus raphanistrum [1]; 1800 g a.i/ha, 21 DAA): 69%
- Control of Raphanus raphanistrum (Raphanus raphanistrum [1]; 1800 g a.i/ha, 28 DAA): 82%
- Control of Raphanus raphanistrum (Raphanus raphanistrum [1]; 2250 g a.i/ha, 14 DAA): 63%
- Control of Raphanus raphanistrum (Raphanus raphanistrum [1]; 2250 g a.i/ha, 21 DAA): 73%
- Control of Raphanus raphanistrum (Raphanus raphanistrum [1]; 2250 g a.i/ha, 28 DAA): 84%
- Control of Raphanus raphanistrum (Raphanus raphanistrum [1]; 2500 g a.i/ha, 14 DAA): 66%
- Control of Raphanus raphanistrum (Raphanus raphanistrum [1]; 2500 g a.i/ha, 21 DAA): 77%
- Control of Raphanus raphanistrum (Raphanus raphanistrum [1]; 2500 g a.i/ha, 28 DAA): 88%
- Control of Megathyrsus maximus (Megathyrsus maximus; 3200 g a.i/ha, 14 DAA): 79%
- Control of Megathyrsus maximus (Megathyrsus maximus; 3200 g a.i/ha, 21 DAA): 85%
- Control of Megathyrsus maximus (Megathyrsus maximus; 3600 g a.i/ha, 14 DAA): 80%
- Control of Megathyrsus maximus (Megathyrsus maximus; 3600 g a.i/ha, 21 DAA): 86%
- Control of Megathyrsus maximus (Megathyrsus maximus; 4000 g a.i/ha, 14 DAA): 76%
- Control of Megathyrsus maximus (Megathyrsus maximus; 4000 g a.i/ha, 21 DAA): 85%
- Control of Avena strigose (Avena strigose; 42 DAA): 47.5%
- Control of Avena strigose (Avena strigose; 49 DAA): 43.8%
- Control of Avena strigose (Avena strigose; 56 DAA): 37.5%
- Control of Ipomoea hederifolia (Ipomoea hederifolia [2]; 42 DAA): 13.8%
- Control of Ipomoea hederifolia (Ipomoea hederifolia [2]; 49 DAA): 11.3%
- Control of Ipomoea hederifolia (Ipomoea hederifolia [2]; 56 DAA): 8.8%
- Control of Raphanus raphanistrum (Raphanus raphanistrum [3]; 42 DAA): 71.3%
- Control of Raphanus raphanistrum (Raphanus raphanistrum [3]; 49 DAA): 68.8%
- Control of Raphanus raphanistrum (Raphanus raphanistrum [3]; 56 DAA): 66.3%
- Control of Ipomoea hederifolia (Ipomoea hederifolia [4]): 63%
